Consider one compound from ChEMBL document CHEMBL1152177, “Imidazole pyrimidine amides as potent, orally bioavailable cyclin-dependent kinase inhibitors” (Bioorg Med Chem Lett, 2008).

Data set [1] is described as follows: Half life in Han-Wistar rat at 1.0 umol/kg, iv. Type of data set: ADME, organism-based. The note with it: in vivo.
Data set [2] can be described thus: AUC in nude mouse at 2.0 umol/kg, iv. The data set is classed as ADME, organism-based. The note with it: plasma.
A short description of data set [3]: Half life in nude mouse at 2.0 umol/kg, iv. Type of data set: ADME, organism-based. As to conditions: in vivo.
Data set [4] is described as follows: Volume of distribution at steady state in nude mouse at 2.0 umol/kg, iv. The data set is classed as ADME, organism-based. The note with it: in vivo, read-out: Vdss.
Data set [5] can be described thus: Clearance in nude mouse at 2.0 umol/kg, iv. As to conditions: in vivo. Type of data set: ADME, organism-based.
Data set [6] can be described thus: Distribution coefficient, log D of the compound. Type of data set: physicochemical. The note with it: octanol/water.
The nature of data set [7]: Clearance in Han-Wistar rat at 1.0 umol/kg, iv. Type of data set: ADME, organism-based. The note with it: in vivo.
The nature of data set [8]: Bioavailability in Han-Wistar rat at 5 umol/kg, po. The data set is classed as ADME, organism-based. As to conditions: in vivo.
Data set [9] is described as follows: AUC in Han-Wistar rat at 5 umol/kg, po. Type of data set: ADME, organism-based. The note with it: plasma.
Data set [10] in a line: AUC in Han-Wistar rat at 1.0 umol/kg, iv. Type of data set: ADME, organism-based. The note with it: plasma.
Data set [11] can be described thus: AUC in Han-Wistar rat at 20 umol/kg, po. Type of data set: ADME, organism-based. The note with it: plasma.
Data set [12] in a line: Bioavailability in Han-Wistar rat at 20 umol/kg, po. As to conditions: in vivo. Type of data set: ADME, organism-based.
Data set [13] can be described thus: Volume of distribution at steady state in Han-Wistar rat at 1.0 umol/kg, iv. The data set is classed as ADME, organism-based. As to conditions: in vivo, read-out: Vdss.

For `CNC(=O)c1ccc(Nc2nccc(-c3cnc(C)n3C(C)C)n2)cc1F`, the values for the half-life in [1] and in data set [3] were 5.8 h and 16.7 h, respectively. For the same compound, the area under the curve (AUC) turned out to be 1.8 µM·h in data set [2], 1.5 µM·h in [9], 1.4 µM·h in data set [10] and 13.7 µM·h in [11]. The figures for the Vd in [4] and in data set [13] were 9.5 L/kg and 1.7 L/kg, respectively. In addition, the clearance in data set [5] was found to be 18.5 mL/min/kg; in data set [7], 11.9 mL/min/kg. This compound also returned a logD in [6] of 3. For the same compound, the bioavailability came out at 21% in [8] and 47% in data set [12].

By half-life is commonly meant how long it takes for the measured level to halve. Read a high half-life as slow decline. Usually AUC stands for the area under the concentration-time curve, a measure of exposure. By clearance is commonly meant a measure of how efficiently the substance is removed, as volume per time. A lower clearance goes with inefficient removal. As a reminder, the logD is the decadic logarithm of the distribution of all forms, ionised or not, between an organic phase and buffer at a given pH. A word on the bioavailability: it is the share of a dose that reaches the circulation, judged against a reference dose that is usually intravenous. The low end stands for poor availability, the high end for good availability.
